Results as given in patent US7495027B2, “3-aryl-4-hydroxyfuranone compounds and the human and animal health use thereof” (Wyeth, priority 2003, dated 2009).
Converted amounts (≈) assume the structure as drawn. Like-named read-outs stand apart in the source and are kept apart here.

Assays:
[1] = target: T1, S. aureus Uridine-diphosphate-N-acetylmuramoyl-L-alanine: D-glutamate liease, MurD (Staphylococcus aureus, UniProt Q2FZ92); assay: biochemical; settings: (S) S. aureus enzyme
T1 sequence (Q2FZ92 1-449): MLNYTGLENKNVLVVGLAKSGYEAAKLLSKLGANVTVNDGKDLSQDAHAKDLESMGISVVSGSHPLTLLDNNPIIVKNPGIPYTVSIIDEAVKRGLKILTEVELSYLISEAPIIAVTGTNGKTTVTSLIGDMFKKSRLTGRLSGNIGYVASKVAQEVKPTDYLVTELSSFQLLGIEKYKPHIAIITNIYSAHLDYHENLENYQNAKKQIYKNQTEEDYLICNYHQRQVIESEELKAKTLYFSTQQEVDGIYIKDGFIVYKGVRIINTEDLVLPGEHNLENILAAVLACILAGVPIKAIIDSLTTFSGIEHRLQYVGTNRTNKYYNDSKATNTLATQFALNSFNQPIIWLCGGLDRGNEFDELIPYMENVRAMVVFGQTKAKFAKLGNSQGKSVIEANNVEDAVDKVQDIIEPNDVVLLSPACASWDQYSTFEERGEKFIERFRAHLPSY
In short: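 MurD, which catalyses the fourth step of cell wall biosynthesis, was tested for inhibition by compounds. Compounds were made up as 10 mg/mL DMSO stocks and diluted to 100 μg/mL in 50 mM Tris/HCl, pH 8.5.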

[2] = target: E. coli Uridine-diphosphate-N-acetvimuramoyl: L-alanine lipase, MurC (Escherichia coli, UniProt P17952); assay: Inhibitory activity against MurC (E. coli); format: biochemical; settings: (E) E. coli enzyme; read-out: MurC IC50 (converted)
staphylococci = assay: Minimum inhibitory concentration, microdilution broth method, staphylococci; format: cell-based; settings: Mueller-Hinton broth, 18-22 hours at 35° C.; for MIC: Staphylococcus aureus
In short: (§1)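 Recent clinical isolates, some resistant to methicillin, penicillin and/or vancomycin, were tested by the broth microdilution method of NCCLS Approved Standard M7-A5 2000. Mueller-Hinton broth served for staphylococci and enterococci, while streptococci received the same broth supplemented with 5% horse blood.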

[3] = target: E. coli UDP-N-acetylglucosamine enolpyruvoyl transferase, MurA (Escherichia coli, UniProt P0A749); assay: biochemical; settings: (E) E. coli enzyme
In short: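 Compound in DMSO/water pre-incubated 10 min at 37° C with enzyme in 50 mM Tris/HCl pH 8.0, 5 mM DTT, 20% glycerol. After Tris/BME and assay buffer were added, OD340 was read at start. Reaction ran 1 hr at 37° C, then stop solution was added with 30 min colour development.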

enterococci = assay: Minimum inhibitory concentration, microdilution broth method, enterococci; format: cell-based; settings: Mueller-Hinton broth, 18-22 hours at 35° C.; for MIC: Enterococcus faecalis
In short: as §1

[4] = target: E. coli Uridine-diphosphate-N-acetylmuramoyl-L-alanine: D-glutamate liease, MurD (Escherichia coli, UniProt P14900); assay: biochemical; settings: (E) E. coli enzyme
In short: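 Final buffer 83 mM Tris/HCl pH 8.0, 50 mM MgCl2, 2 mM ATP. Compounds from 10 mg/mL DMSO stocks diluted to 100 μg/mL in 50 mM Tris/HCl pH 8.5 (working solution, not final assay level).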

[5] = target: E. coli Enopyruvyl-UPD-N-acetylglucosamine reductase, Mur B (Escherichia coli, UniProt P08373); assay: biochemical; settings: (E) E. coli enzyme; read-out: MurB IC50 (converted)
Streptococci = assay: Minimum inhibitory concentration, microdilution broth method, streptococci; format: cell-based; settings: Mueller-Hinton broth with 5% horse blood, 18-22 hours at 35° C.; for MIC: S. pneumo GC 1894
In short: as §1

[6] = system: Trichostrongylus columbriformis; assay: In vivo efficacy against T. colubriformis in infected gerbils; settings: gerbils infected with T. colubriformis; single oral dose of 50 mg/kg by gavage; worm counts four days post-treatment; % mortality as compared to negative control
In short: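 Gerbils infected with ~800 L3/mL larvae were treated one week later by gavage with a single 50 mg/kg oral dose in PEG 400:DMSO (1:2 v/v), 3 animals per group. Necropsy four days post-treatment, with worms counted under stereoscopes.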

[7] = Toxicity in treated gerbils (deaths or significant weight loss); format: in vivo; design: key: +: Toxicity is indicated for those groups having one or more animals expired; settings: single oral dose of 50 mg/kg, groups of 3
Protocol: In this evaluation, gerbils are infected with Trichostrongylus columbriformis infective larvae at a concentration of approximately 800 L3/mL. Larvae for gerbil infections are cultured from feces from sheep previously infected with T. colubriformis. One week post infection, test compounds are administered by gavage as a single oral dose of 50 mg/kg of body weight. For each group of 3 gerbils, 10 mg of test compound are dissolved in 2 mL of PEG 400:DMSO (1:2 v/v) and each animal is administered the test solution at a rate of 0.1 mL/10 g of body weight. […] All animals are observed daily for morbidity and mortality. Four days post-treatment, all animals are weighed and necropsied. Worm counts are conducted with the use of stereoscopes and counters.

[8] = S. aureus GC 1131, read-out: MIC S. aureus GC 1131
[9] = S. aureus GC 4543, read-out: MIC S. aureus GC 4543
[10] = E. faecalis GC 2242, read-out: MIC E. faecalis GC 2242
[11] = E. faecalis GC 4555, read-out: MIC E. faecalis GC 4555

E. coli Enopyruvyl-UPD-N-acetylglucosamine reductase, Mur B, sequence (P08373 whole entry): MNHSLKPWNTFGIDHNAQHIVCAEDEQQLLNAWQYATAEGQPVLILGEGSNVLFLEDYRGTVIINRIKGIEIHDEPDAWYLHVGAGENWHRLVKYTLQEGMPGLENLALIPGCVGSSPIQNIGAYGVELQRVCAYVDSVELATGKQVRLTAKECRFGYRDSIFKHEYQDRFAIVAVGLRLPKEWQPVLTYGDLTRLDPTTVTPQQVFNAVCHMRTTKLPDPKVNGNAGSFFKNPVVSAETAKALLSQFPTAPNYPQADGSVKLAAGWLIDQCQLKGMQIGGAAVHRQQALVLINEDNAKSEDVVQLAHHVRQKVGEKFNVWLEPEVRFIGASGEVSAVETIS
E. coli Uridine-diphosphate-N-acetylmuramoyl-L-alanine: D-glutamate liease, MurD, sequence (P14900 whole entry): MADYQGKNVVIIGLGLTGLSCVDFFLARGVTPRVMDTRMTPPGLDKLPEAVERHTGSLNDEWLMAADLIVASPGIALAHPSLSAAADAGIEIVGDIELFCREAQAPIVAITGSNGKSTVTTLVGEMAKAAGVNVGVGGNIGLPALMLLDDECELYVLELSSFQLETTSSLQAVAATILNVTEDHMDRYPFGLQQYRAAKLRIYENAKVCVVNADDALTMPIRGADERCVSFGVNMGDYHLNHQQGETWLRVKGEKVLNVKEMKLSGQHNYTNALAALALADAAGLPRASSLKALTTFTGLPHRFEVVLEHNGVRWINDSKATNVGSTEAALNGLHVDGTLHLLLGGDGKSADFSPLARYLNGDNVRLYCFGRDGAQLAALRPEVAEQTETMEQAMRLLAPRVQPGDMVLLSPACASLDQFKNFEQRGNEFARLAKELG
E. coli UDP-N-acetylglucosamine enolpyruvoyl transferase, MurA, sequence (P0A749 whole entry): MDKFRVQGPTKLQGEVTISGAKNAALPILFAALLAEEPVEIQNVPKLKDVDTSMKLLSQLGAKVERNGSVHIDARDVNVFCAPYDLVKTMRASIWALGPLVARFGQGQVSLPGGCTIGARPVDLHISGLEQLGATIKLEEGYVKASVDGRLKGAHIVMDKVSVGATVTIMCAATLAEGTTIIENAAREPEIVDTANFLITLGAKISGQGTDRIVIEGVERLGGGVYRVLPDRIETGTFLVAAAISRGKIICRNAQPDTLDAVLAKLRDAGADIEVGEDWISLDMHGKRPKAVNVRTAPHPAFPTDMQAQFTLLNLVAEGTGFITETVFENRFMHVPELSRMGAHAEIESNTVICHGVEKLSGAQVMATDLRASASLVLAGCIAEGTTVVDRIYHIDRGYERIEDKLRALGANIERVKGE
E. coli Uridine-diphosphate-N-acetvimuramoyl: L-alanine lipase, MurC, sequence (P17952 whole entry): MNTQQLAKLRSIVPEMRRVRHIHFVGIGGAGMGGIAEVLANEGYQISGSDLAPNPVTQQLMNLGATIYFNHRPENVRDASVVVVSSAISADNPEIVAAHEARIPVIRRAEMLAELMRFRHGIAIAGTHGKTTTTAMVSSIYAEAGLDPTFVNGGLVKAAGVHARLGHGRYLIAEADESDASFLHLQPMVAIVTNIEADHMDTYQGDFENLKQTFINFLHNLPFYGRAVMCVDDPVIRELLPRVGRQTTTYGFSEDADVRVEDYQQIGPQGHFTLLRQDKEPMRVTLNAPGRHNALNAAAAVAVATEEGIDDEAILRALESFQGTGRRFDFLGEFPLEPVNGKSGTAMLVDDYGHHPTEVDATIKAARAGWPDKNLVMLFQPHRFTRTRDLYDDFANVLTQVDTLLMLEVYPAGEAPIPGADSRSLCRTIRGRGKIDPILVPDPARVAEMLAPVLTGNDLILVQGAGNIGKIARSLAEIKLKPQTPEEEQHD

Row | SMILES | IC50 [1] [µM] | IC50 [2] [µM] | melting point [°C] | IC50 [3] [µM] | IC50 [4] [µM] | IC50 [5] [µM] | MIC (staphylococci; [8]) [µg/mL] | MIC (staphylococci; [9]) [µg/mL] | MIC (enterococci; [10]) [µg/mL] | MIC (enterococci; [11]) [µg/mL] | MIC (Streptococci) [µg/mL] | Mortality [6] [%] | Toxicity [7] | also measured
1 | O=C1O/C(=C\c2ccc(-c3ccccc3)cc2)C(O)=C1c1cc(Cl)cc(Cl)c1 [Example 68] | 26.9 | 22 | 232 to 235 | 7.33 | 26.9 | 7.33 |  |  |  |  |  |  |  | MIC S. aureus GC 1131 (staphylococci; S. aureus GC 1131): 2 µg/mL (≈ 4.89 µM); MIC S. aureus GC 4543 (staphylococci; S. aureus GC 4543): 2 µg/mL (≈ 4.89 µM); MIC E. faecalis GC 2242 (enterococci; E. faecalis GC 2242): 1 µg/mL (≈ 2.44 µM); MIC E. faecalis GC 4555 (enterococci; E. faecalis GC 4555): 2 µg/mL (≈ 4.89 µM); MIC S. pneumo GC 1894 (Streptococci): <0.125 µg/mL
2 | O=C1O/C(=C\c2ccc3ccccc3c2)C(O)=C1c1ccc(-c2ccccc2)cc1 [Example 103] |  | 41 | 266 to 270 | > 64 | > 64 | 15.4 | > 128 | 64 (≈ 164 µM) | 32 (≈ 82 µM) | 64 (≈ 164 µM) | 0.5 (≈ 1.28 µM) |  |  | 
3 | O=C1O/C(=C\c2ccccc2C(F)(F)F)C(O)=C1c1ccc(-c2ccccc2)c(F)c1 [Example 107] | 39.9 | 14.1 | 224 to 228 | 32.8 | > 58.6 | 9.38 | 4 (≈ 9.38 µM) | 2 (≈ 4.69 µM) | 2 (≈ 4.69 µM) | 8 (≈ 18.8 µM) | 0.25 (≈ 0.586 µM) |  |  | 
4 | O=C1O/C(=C\c2cccc(C(F)(F)F)c2)C(O)=C1c1cccc(-c2ccccc2)c1 [Example 108] | 36.7 | 14.7 | 210 to 212 | 46.5 | > 61.2 | 24.5 | 2 (≈ 4.9 µM) | 2 (≈ 4.9 µM) | 2 (≈ 4.9 µM) | 8 (≈ 19.6 µM) | 1 (≈ 2.45 µM) |  |  | 
5 | N#Cc1ccc(C2=C(O)C(=Cc3ccc(-c4ccc(Cl)cc4)cc3)OC2=O)cc1 [R=H; R1=4-CN—C6H4; R2=4-(4′-Cl-biphenyl)] |  |  |  |  |  |  |  |  |  |  |  | 64.33 | + | 
6 | N#Cc1ccc(C2=C(O)/C(=C/c3ccc(-c4ccc(C#N)cc4)cc3)OC2=O)cc1 [R=H; R1=4-CN—C6H4; R2=4-(4′CN-biphenyl)] |  |  |  |  |  |  |  |  |  |  |  | 88.60 | + | 
7 | N#Cc1ccc(/C=C2\OC(=O)C(c3ccc(C#N)cc3)=C2O)cc1 [R=H; R1=4-CN—C6H4; R2=4-CN—C6H4] |  |  |  |  |  |  |  |  |  |  |  | 62.43 | + | 
8 | N#Cc1ccc(C2=C(O)C(=Cc3ccc(Cl)cc3)OC2=O)cc1 [R=H; R1=4-CN—C6H4; R2=4-Cl—C6H4] |  |  |  |  |  |  |  |  |  |  |  | 90.20 | + | 
9 | N#Cc1ccc(/C=C2\OC(=O)C(c3ccc(Cl)cc3)=C2O)cc1 [R=H; R1=4-Cl—C6H4; R2=4-CN—06H4] |  |  |  |  |  |  |  |  |  |  |  | 84.54 | + | 
10 | O=C1O/C(=C\c2ccc(-c3ccccc3)cc2)C(O)=C1c1ccc(Cl)cc1 [R=H; R1=4-Cl—C6H4; R2=4-biphenyl] |  |  |  |  |  |  |  |  |  |  |  | 33.10 | + | 
